This passage reports EC50, AC50 and IC50 results from ChEMBL document CHEMBL1201862, “PubChem BioAssay data set” (2004).

Activity calls are given as the source filed them.

Assay [1] addresses T1, Endoribonuclease toxin MazF (Escherichia coli K-12, UniProt P0AE70).
T1 sequence (P0AE70 whole entry): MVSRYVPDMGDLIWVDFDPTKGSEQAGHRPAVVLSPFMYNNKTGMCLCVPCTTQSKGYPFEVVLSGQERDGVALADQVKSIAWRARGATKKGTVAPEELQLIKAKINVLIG
The assay is described as follows: MazF toxin RNase activators, dose response, biochemical, fluorescence, single-stranded RNA substrate, uHTS hits (AID 588481). It counts as functional.

The next assay concerns the target Cytochrome P450 2C9 (Homo sapiens, UniProt P11712).
In assay [2] the target is T1, Endoribonuclease toxin MazF. The assay is described as follows: fluorescent RNA oligo signal without MazF, dose response, counter-screen for MazEF activator project, biochemical, fluorescence, single-stranded RNase substrate (AID 588502). It counts as functional. In general terms: A counterscreen serves to expose hits that act by an unwanted route or on another target.

Assay [3] concerns the target T2, Sentrin-specific protease 8 (Homo sapiens, UniProt Q96LD8).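 Further: luminescence read-out of SENP8 inhibition, dose-response confirmation following an ultra-high-throughput screen.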
T2 sequence (Q96LD8 whole entry): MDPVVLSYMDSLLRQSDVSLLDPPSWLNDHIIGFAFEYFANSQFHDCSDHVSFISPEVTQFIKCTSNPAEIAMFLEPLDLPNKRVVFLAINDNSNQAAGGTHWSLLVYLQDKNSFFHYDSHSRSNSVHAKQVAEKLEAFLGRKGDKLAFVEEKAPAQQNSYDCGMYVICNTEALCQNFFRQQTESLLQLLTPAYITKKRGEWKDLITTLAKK
It counts as functional.

For assay [4], the target named is T3, Sentrin-specific protease 6 (Homo sapiens, UniProt Q9GZR1).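 Further: Luminescence-based dose-response confirmatory assay of SENP6 inhibition, following up an ultra-high-throughput screen.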
T3 sequence (Q9GZR1 whole entry): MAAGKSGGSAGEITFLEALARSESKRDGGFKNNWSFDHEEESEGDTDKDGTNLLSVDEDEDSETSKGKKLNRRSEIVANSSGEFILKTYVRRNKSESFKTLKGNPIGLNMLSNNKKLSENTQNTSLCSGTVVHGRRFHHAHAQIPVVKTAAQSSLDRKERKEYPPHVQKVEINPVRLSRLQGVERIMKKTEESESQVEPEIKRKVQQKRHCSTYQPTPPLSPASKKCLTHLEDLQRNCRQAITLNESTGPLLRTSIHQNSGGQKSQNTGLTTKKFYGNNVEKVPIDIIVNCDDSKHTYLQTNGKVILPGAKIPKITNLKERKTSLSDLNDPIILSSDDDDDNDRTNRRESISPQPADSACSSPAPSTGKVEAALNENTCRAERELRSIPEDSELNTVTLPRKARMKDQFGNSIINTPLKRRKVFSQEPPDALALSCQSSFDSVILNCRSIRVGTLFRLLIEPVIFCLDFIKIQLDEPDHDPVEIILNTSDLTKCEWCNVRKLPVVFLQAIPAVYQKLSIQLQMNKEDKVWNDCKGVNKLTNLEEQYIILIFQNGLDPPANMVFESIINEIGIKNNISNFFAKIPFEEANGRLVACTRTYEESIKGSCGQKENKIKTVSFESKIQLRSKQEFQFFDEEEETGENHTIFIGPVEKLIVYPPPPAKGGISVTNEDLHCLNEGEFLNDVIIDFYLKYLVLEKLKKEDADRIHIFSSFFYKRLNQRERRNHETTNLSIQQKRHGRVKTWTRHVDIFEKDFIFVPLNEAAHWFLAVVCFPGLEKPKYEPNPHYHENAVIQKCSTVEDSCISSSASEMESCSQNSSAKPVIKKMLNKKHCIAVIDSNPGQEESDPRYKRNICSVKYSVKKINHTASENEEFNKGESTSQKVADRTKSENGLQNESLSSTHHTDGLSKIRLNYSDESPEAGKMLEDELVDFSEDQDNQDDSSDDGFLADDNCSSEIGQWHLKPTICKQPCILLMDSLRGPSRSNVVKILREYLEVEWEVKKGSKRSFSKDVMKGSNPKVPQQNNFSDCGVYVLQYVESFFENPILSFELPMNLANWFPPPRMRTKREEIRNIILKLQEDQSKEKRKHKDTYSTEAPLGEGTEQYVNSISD
It counts as functional.

Another assay concerns the target T4, Caspase-3 (Homo sapiens, UniProt P42574).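 Further: Dose-response selectivity test against caspase-3 for candidate inhibitors of sentrin-specific proteases (SENPs).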
T4 sequence (P42574 whole entry): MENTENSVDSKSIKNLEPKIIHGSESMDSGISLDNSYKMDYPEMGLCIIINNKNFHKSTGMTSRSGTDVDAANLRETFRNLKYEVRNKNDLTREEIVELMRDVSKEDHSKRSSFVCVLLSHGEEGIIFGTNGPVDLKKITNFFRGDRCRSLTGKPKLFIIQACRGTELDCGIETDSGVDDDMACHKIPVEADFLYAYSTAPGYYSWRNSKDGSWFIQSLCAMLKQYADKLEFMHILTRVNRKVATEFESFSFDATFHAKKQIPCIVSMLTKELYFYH
It counts as functional.

The target in assay [5] is T5, Sentrin-specific protease 7 (Homo sapiens, UniProt Q9BQF6).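 Further: Luminescence-based dose-response confirmation of ultra-high-throughput screening hits, measuring inhibition of SENP7.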
T5 sequence (Q9BQF6 whole entry): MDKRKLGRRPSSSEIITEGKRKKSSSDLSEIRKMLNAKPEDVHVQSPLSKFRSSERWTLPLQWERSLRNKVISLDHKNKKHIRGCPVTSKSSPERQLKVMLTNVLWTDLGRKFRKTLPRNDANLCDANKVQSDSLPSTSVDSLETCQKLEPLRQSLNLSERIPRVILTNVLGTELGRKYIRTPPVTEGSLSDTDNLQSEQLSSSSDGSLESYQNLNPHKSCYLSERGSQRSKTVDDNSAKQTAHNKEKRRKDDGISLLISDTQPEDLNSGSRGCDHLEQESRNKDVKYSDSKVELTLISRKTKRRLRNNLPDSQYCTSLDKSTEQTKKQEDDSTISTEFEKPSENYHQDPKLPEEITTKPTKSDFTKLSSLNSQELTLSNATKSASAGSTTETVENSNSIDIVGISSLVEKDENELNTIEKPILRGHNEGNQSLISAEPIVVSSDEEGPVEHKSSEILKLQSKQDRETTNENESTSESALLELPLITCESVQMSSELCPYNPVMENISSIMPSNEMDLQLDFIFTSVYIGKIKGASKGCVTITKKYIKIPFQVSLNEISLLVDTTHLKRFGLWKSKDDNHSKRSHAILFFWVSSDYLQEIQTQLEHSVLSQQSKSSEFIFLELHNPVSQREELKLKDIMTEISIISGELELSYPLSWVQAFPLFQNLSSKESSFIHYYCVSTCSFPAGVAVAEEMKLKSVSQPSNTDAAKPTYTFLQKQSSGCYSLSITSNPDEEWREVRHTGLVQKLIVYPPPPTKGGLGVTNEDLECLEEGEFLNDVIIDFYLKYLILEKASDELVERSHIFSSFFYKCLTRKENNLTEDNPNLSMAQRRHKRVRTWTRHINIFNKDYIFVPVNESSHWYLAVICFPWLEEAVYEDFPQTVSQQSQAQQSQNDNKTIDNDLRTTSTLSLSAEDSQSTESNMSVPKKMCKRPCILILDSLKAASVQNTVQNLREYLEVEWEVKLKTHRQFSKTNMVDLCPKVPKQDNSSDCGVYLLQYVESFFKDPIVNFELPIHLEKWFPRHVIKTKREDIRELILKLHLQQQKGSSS
It counts as functional.

Assay [6] in a line: Luminescence Cell-Based Dose Retest to Confirm Inhibitors of Cancer Stem Cells. [Related pubchem assays (depositor defined):AID2717, AID2721]. It counts as functional. To be noted: Homo sapiens.
The next assay deals with A-375. Nature of the assay: A375 melanoma cell viability reduction, dose response, counter-screen for MITF modulator project, cherry-pick samples, set 2 (AID 540335). It counts as functional, cell-based. To be noted: Homo sapiens.
In assay [7] the target is T6, Microphthalmia-associated transcription factor (Homo sapiens, UniProt O75030).
T6 sequence (O75030 whole entry): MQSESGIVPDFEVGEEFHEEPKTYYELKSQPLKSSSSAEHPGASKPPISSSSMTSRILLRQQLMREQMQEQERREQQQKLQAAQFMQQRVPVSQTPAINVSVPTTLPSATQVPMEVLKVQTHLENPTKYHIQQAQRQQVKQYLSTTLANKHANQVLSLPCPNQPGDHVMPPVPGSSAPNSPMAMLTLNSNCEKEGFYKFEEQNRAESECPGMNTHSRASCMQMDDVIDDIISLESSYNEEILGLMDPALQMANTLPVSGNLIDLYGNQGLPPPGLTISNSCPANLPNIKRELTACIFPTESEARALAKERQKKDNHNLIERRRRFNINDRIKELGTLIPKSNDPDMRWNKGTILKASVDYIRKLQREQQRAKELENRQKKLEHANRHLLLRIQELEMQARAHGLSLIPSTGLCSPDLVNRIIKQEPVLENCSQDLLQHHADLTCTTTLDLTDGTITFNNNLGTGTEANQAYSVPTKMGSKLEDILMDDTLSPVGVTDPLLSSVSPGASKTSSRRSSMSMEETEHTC
The assay is described as follows: TRPM1 promoter luciferase signal decrease, dose response, MITF inhibitor project, cell-based, SK-MEL-5, cherry-picked, set 3 (AID 493073).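 Further: SK-MEL-5 melanoma cells with luciferase driven by the MITF target TRPM1 promoter.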 It counts as functional.

The test system of another assay is INS1. Nature of the assay: beta cell apoptosis inhibitors, cytokine rescue, dose response, luminescence, retest (AID 449756).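 Further: cell death triggered by IL-1 beta plus TNF-alpha plus IFN-gamma mixture; protective hits raise ATP signal compared with cytokine alone wells.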 It counts as functional, cell-based. To be noted: Rattus norvegicus.
The nature of assay [8]: inhibitors of SNCA 5'UTR-driven reporter translation, confirmation, H4 neuroglioma cells, luminescence (AID 1988). It counts as functional, cell-based.
Assay [9] in a line: inhibitors of firefly luciferase expression or activity, dose response, H4 neuroglioma cells, luminescence (AID 1990). It counts as functional, cell-based.
Assay [10] is described as follows: Luminescence Cell-Based Dose Response HTS to Identify Inhibitors of 5'UTR Stem-Loop Driven Prion Protein mRNA Translation in H4 Neuroglioblastoma Cells. [Related pubchem assays: 1827 (Project Summary), 1813 (Primary HTS)]. It counts as functional.
The target in another assay is T7, Protein skinhead-1 (Caenorhabditis elegans, UniProt P34707).
T7 sequence (P34707 whole entry): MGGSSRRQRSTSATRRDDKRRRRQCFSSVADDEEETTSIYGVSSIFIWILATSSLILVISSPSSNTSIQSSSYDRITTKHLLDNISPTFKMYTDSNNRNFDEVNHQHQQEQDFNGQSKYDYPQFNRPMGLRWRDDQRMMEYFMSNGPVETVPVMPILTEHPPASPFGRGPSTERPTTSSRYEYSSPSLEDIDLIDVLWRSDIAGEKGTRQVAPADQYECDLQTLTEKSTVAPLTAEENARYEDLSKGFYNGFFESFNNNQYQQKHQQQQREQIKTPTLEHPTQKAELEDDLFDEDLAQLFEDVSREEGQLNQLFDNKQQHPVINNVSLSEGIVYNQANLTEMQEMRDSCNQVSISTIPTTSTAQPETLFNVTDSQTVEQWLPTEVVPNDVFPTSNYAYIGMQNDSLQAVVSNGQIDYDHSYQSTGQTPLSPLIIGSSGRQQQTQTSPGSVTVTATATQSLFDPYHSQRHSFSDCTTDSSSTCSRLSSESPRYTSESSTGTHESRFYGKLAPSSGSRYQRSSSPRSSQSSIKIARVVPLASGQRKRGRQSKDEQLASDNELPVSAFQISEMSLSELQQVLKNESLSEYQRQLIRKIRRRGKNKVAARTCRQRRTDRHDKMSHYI
It counts as functional.

Cytochrome P450 2C9, sequence (P11712 whole entry): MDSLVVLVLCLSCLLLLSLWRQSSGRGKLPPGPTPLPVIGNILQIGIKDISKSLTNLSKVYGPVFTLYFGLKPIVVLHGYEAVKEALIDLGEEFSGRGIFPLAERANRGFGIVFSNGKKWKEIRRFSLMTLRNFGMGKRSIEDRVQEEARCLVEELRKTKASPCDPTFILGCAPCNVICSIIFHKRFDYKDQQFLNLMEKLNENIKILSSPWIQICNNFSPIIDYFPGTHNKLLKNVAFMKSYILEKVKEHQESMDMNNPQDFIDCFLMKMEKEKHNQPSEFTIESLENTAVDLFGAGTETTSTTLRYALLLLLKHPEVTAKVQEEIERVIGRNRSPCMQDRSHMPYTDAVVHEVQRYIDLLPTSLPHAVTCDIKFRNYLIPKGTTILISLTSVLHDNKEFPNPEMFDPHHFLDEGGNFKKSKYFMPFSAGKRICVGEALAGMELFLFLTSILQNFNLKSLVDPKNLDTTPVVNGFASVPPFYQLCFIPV

One may read the EC50 as the concentration needed to bring the measured effect to its halfway point. The AC50 is the concentration giving half of the maximal activity seen. `COc1cc(/C=N/NC(=O)c2cccnc2)ccc1OC(=O)c1ccc2c(c1)OCO2`: the EC50 in [1] and in [2] was > 99 µM (inactive) each time. Further, the AC50 on Cytochrome P450 2C9 is 7.94 µM (inconclusive).
The term IC50 denotes the midpoint of a concentration-inhibition curve. Consider `CCOC(=O)c1sc(-c2ccc(OC)cc2)cc1N`, for which the concentration for half-maximal inhibition (IC50) in assay [3] was 10.7 µM (active); in assay [4] it was 12.1 µM (active); on Caspase-3, 37.5 µM (active); in assay [5], 7.33 µM (active).
With `CC(C)(C)NC(=O)COc1ccc(-c2ccccc2)cc1`, the IC50 is 70.7 µM (active) in [3], 52.6 µM (active) in assay [4], 24.6 µM (active) on Caspase-3 and 12.3 µM (active) in [5].
On to `CC(=O)c1c(C)oc2c1C(=O)c1ccccc1C2=O`, for which the AC50 in [6] was 3.93 µM (active); in the assay with A-375 it was 41.3 µM (active); in [7] it was 6.68 µM (active); in the assay on INS1, 4.35 µM (active).
Turning to `Cc1nnc2nc(SCC(=O)NCCC3=CCCCC3)n(-c3ccc(Br)cc3)c(N)c1-2`, the concentration giving a half-maximal response (EC50) is 8.54 µM (active) in assay [8], 9.9 µM (active) in assay [9] and 15.4 µM (active) in assay [10]. The results for the AC50 (in the assay with A-375; in [7]; in the assay on INS1) were 26.9 µM (active), 2.46 µM (active) and 5.09 µM (active), respectively.
Take `O=C(Nc1cc[n+](-c2nc3ccccc3nc2[N-]S(=O)(=O)c2ccccc2)cc1)c1cccs1`: the EC50 in assay [1] and in assay [2] was > 99 µM (inactive) in each case.
Consider `FC(F)(F)c1ccnc(Oc2ccc(C3=NCCS3)cc2)c1`, for which the half-inhibitory concentration (IC50) was 5.09 µM (active) in assay [3]; 4.94 µM (active) in [4]; 11.5 µM (active) on Caspase-3; 2.36 µM (active) in assay [5]; 94.5 µM (inactive) at Protein skinhead-1.
